# Measurements published in patent publication US6004932A, “Use of glucagon as a metabolic conditioner for dairy cows and other ruminants” (Iowa State University Research Foundation, Inc., priority 1998, dated 1999).
# Legend:
# Assay type in all cases: in vivo
# [1] = tested on: multiparous Holstein cows; assay: Effect of glucagon on liver glycogen content of dairy cows, liver biopsies; conditions: NTG and STG groups, FIG. 3
# Experimental: (§1) Glucagon purified from bovine pancreas, was weighed, dissolved in 0.09% NaCl adjusted to pH 10.5, and diluted so that the amount to be infused daily was contained in 480 ml to allow for an infusion rate of 20 ml/h. All glassware that was to be in contact with glucagon was rinsed with a solution of 1.0% bovine serum albumin to prevent adherence of glucagon to glass surfaces.
# The four groups of 10 multiparous Holstein cows per group that were used for the main trial were normal controls (NC), normal cows treated with glucagon (NTG), susceptible controls that should be inducible into ketosis (SC), and susceptible cows treated with glucagon (STG). The two groups of 10 normal cows were selected from cows that had body condition scores at calving that ranged from 3.2 to 3.8. The two groups of 10 susceptible cows were selected from obese cows that have been fed at 2 times NRC requirements for energy during late lactation and throughout the dry period so they calved at a body condition score of 4.0 to 4.5. […]
# (§2) A liver biopsy was taken at 7 days postpartum and analyzed immediately for triacylglycerols and glycogen. […]
# (§3) On d 14 postpartum, the SC and the STG groups began the FRBD (feed restriction and 1,3-butanediol in the diet) protocol in which feed intake was restricted to 80% of the average intake for the previous 2 days and 1,3-butanediol (BD) was added, a precursor of ketone bodies, to the ration in increasing quantities either until the cow became ketotic or until 1.4 kg of BD was offered daily. […]
# Glycogen and triacylglycerol concentrations of liver samples were determined as described by Mills, S. E. et al., "Characterization of metabolic changes during a protocol for inducing lactation ketosis in dairy cows", J. Dairy Sci. 69:352 (1986a). Total lipid content was measured as described by Drackley, J. K. et al., "Metabolic changes in blood and liver of dairy cows during feed restriction or administration of 1,3-butanediol", J. Dairy Sci., 74:4254 (1991). […]
# dairy cows = assay: Toxicity observation during glucagon treatment of dairy cows; conditions: treated dairy cows, 10 mg/day
# Experimental: On d 14 postpartum, the SC and the STG groups began the FRBD (feed restriction and 1,3-butanediol in the diet) protocol in which feed intake was restricted to 80% of the average intake for the previous 2 days and 1,3-butanediol (BD) was added, a precursor of ketone bodies, to the ration in increasing quantities either until the cow became ketotic or until 1.4 kg of BD was offered daily. The STG group at 21 days postpartum began to receive a continuous intravenous infusion of 10 mg of glucagon daily, which continued for 14 days. The SC group were infused with saline as a vehicle control. The NC and the NTG groups continued to receive feed for ad libitum intake, but the NTG group received an infusion of glucagon from d 21 to 35 postpartum and the NC group was infused with vehicle control. (The NTG group gave information on how normal early lactation cows respond to 14-day intravenous infusions of glucagon).
# [2] = tested on: early lactation dairy cows; assay: Preliminary data on glucagon doses above 10 mg/day in early lactation dairy cows; conditions: doses of greater than 10 mg/day; inventors' preliminary data
# [3] = tested on: multiparous Holstein cows; assay: Effect of glucagon on liver triacylglycerol (lipid) levels of dairy cows, liver biopsies
# Experimental: as §1
# The four groups of 10 multiparous Holstein cows per group that were used for the main trial were normal controls (NC), normal cows treated with glucagon (NTG), susceptible controls that should be inducible into ketosis (SC), and susceptible cows treated with glucagon (STG). […]
# as §2, §3
# Glycogen and triacylglycerol concentrations of liver samples were determined as described by Mills, S. E. et al., "Characterization of metabolic changes during a protocol for inducing lactation ketosis in dairy cows", J. Dairy Sci. 69:352 (1986a). […]
substance,measurement,setting,value
glucagon,"liver glycogen content after d 38, before the 42-d biopsy",[1]; after termination of infusion,dropped dramatically
same,liver glycogen concentration from the 20-d to the 23-d biopsy sample,[1]; after infusions began at d 21,decreased
same,liver glycogen concentration from d 23 up to the d 38 biopsy,[1]; d 38 is 3 d after infusions stopped,increased at a parallel rate
same,glucagon toxicity in the animals,dairy cows,without any indication of glucagon toxicity
same,incidence of fatty liver at high dose,[2],may actually increase the incidence of fatty liver
same,"liver triacylglycerol, covariate adjusted to average d-7 value, normal cows","[3]; NTG vs NC, FIG. 2",only a slight difference between the NC and the NTG groups
same,change in concentration of lipid in livers of normal cows,"[3]; normal cows (NTG vs NC), 10 mg/d intravenous infusion d 21-35 postpartum, FIG. 1",no major decrease
